From PubChem BioAssay AID1259407 (Chemical Carcinogenesis Research Information System (CCRIS), 2018)
Active and inactive are the calls of the source. The rule behind the calls is not given here.

Tested on: CCRIS mutagenicity, Ames/micronucleus/aberration tests
Experiment: CCRIS mutagenicity studies
[1] = Test System: AMES SALMONELLA TYPHIMURIUM, Strain/Indicator: TA98, Metabolic Activation: NONE, Method: STANDARD PLATE
[2] = Test System: AMES SALMONELLA TYPHIMURIUM, Strain/Indicator: TA98, Metabolic Activation: RAT, LIVER, S-9, AROCLOR 1254, Method: STANDARD PLATE
[3] = Test System: AMES SALMONELLA TYPHIMURIUM, Strain/Indicator: TA100, Metabolic Activation: NONE, Method: STANDARD PLATE
[4] = Test System: AMES SALMONELLA TYPHIMURIUM, Strain/Indicator: TA100, Metabolic Activation: RAT, LIVER, S-9, AROCLOR 1254, Method: STANDARD PLATE
[5] = Test System: AMES SALMONELLA TYPHIMURIUM, Strain/Indicator: TA1535, Metabolic Activation: NONE, Method: STANDARD PLATE
[6] = Test System: AMES SALMONELLA TYPHIMURIUM, Strain/Indicator: TA1535, Metabolic Activation: RAT, LIVER, S-9, AROCLOR 1254, Method: STANDARD PLATE
[7] = Test System: AMES SALMONELLA TYPHIMURIUM, Strain/Indicator: TA1537, Metabolic Activation: NONE, Method: STANDARD PLATE
[8] = Test System: AMES SALMONELLA TYPHIMURIUM, Strain/Indicator: TA1537, Metabolic Activation: RAT, LIVER, S-9, AROCLOR 1254, Method: STANDARD PLATE
[9] = Test System: AMES SALMONELLA TYPHIMURIUM, Strain/Indicator: TA98, Metabolic Activation: NONE, Method: PREINCUBATION

CC(C)[C@@H]1CC[C@@H](C)C[C@H]1O
mutagenic call (Test System: AMES SALMONELLA TYPHIMURIUM, Strain/Indicator: TA97, Metabolic Activation: NONE, Method: PREINCUBATION): inactive; negative | mutagenic call (Test System: AMES SALMONELLA TYPHIMURIUM, Strain/Indicator: TA97, Metabolic Activation: RAT, LIVER, S-9, AROCLOR 1254, Method: PREINCUBATION): inactive; negative | mutagenic call (Test System: AMES SALMONELLA TYPHIMURIUM, Strain/Indicator: TA97A, Metabolic Activation: NONE, Method: STANDARD PLATE): inactive; negative | mutagenic call (Test System: AMES SALMONELLA TYPHIMURIUM, Strain/Indicator: TA97A, Metabolic Activation: RAT LIVER S-9, AROCLOR 1254, Method: STANDARD PLATE): inactive; negative | mutagenic call [1]: inactive; negative | mutagenic call (Test System: AMES SALMONELLA TYPHIMURIUM, Strain/Indicator: TA98, Metabolic Activation: RAT LIVER S-9, AROCLOR 1254, Method: STANDARD PLATE): inactive; negative | mutagenic call [2]: inactive; negative | mutagenic call [3]: inactive; negative | mutagenic call (Test System: AMES SALMONELLA TYPHIMURIUM, Strain/Indicator: TA100, Metabolic Activation: RAT LIVER S-9, AROCLOR 1254, Method: STANDARD PLATE): inactive; negative | mutagenic call [4]: inactive; negative | mutagenic call (Test System: AMES SALMONELLA TYPHIMURIUM, Strain/Indicator: TA102, Metabolic Activation: NONE, Method: PREINCUBATION): inactive; negative | mutagenic call (Test System: AMES SALMONELLA TYPHIMURIUM, Strain/Indicator: TA102, Metabolic Activation: NONE, Method: STANDARD PLATE): inactive; negative | mutagenic call (Test System: AMES SALMONELLA TYPHIMURIUM, Strain/Indicator: TA102, Metabolic Activation: RAT LIVER S-9, AROCLOR 1254, Method: STANDARD PLATE): inactive; negative | mutagenic call (Test System: AMES SALMONELLA TYPHIMURIUM, Strain/Indicator: TA102, Metabolic Activation: RAT, LIVER, S-9, AROCLOR 1254, Method: PREINCUBATION): inactive; negative | mutagenic call [5]: inactive; negative | mutagenic call [6]: inactive; negative | mutagenic call [7]: inactive; negative | mutagenic call [8]: inactive; negative

c1cc(-c2cc3ccc(C4=NCCN4)cc3[nH]2)ccc1C1=NCCN1
mutagenic call [1]: inactive; negative | mutagenic call (Test System: AMES SALMONELLA TYPHIMURIUM, Strain/Indicator: TA98, Metabolic Activation: RAT, LIVER, S-9, PHENOBARBITAL, Method: STANDARD PLATE): inactive; negative | mutagenic call [3]: inactive; negative | mutagenic call (Test System: AMES SALMONELLA TYPHIMURIUM, Strain/Indicator: TA100, Metabolic Activation: RAT, LIVER, S-9, PHENOBARBITAL, Method: STANDARD PLATE): inactive; negative

C[N+](=O)[O-]
mutagenic call (Test System: AMES SALMONELLA TYPHIMURIUM, Strain/Indicator: TA98, Metabolic Activation: HAMSTER, LIVER, S-9, AROCLOR 1254 (10%), Method: PREINCUBATION): inactive; negative | mutagenic call (Test System: AMES SALMONELLA TYPHIMURIUM, Strain/Indicator: TA98, Metabolic Activation: HAMSTER, LIVER, S-9, AROCLOR 1254, FLAVIN MONONUCLEOTIDE, Method: PREINCUBATION): inactive; negative | mutagenic call [9]: inactive; negative | mutagenic call (Test System: AMES SALMONELLA TYPHIMURIUM, Strain/Indicator: TA98, Metabolic Activation: RAT, LIVER, S-9, AROCLOR 1254 (10%), Method: PREINCUBATION): inactive; negative | mutagenic call (Test System: AMES SALMONELLA TYPHIMURIUM, Strain/Indicator: TA98, Metabolic Activation: RAT, LIVER, S-9, KANECHLOR 500, Method: PREINCUBATION): inactive; negative | mutagenic call (Test System: AMES SALMONELLA TYPHIMURIUM, Strain/Indicator: TA100, Metabolic Activation: HAMSTER, LIVER, S-9, AROCLOR 1254 (10%), Method: PREINCUBATION): inactive; negative | mutagenic call (Test System: AMES SALMONELLA TYPHIMURIUM, Strain/Indicator: TA100, Metabolic Activation: HAMSTER, LIVER, S-9, AROCLOR 1254, FLAVIN MONONUCLEOTIDE, Method: PREINCUBATION): inactive; negative | mutagenic call (Test System: AMES SALMONELLA TYPHIMURIUM, Strain/Indicator: TA100, Metabolic Activation: NONE, Method: PREINCUBATION): inactive; negative | mutagenic call (Test System: AMES SALMONELLA TYPHIMURIUM, Strain/Indicator: TA100, Metabolic Activation: RAT, LIVER, S-9, AROCLOR 1254 (10%), Method: PREINCUBATION): inactive; negative | mutagenic call (Test System: AMES SALMONELLA TYPHIMURIUM, Strain/Indicator: TA100, Metabolic Activation: RAT, LIVER, S-9, KANECHLOR 500, Method: PREINCUBATION): inactive; negative | mutagenic call (Test System: AMES SALMONELLA TYPHIMURIUM, Strain/Indicator: TA1535, Metabolic Activation: HAMSTER, LIVER, S-9, AROCLOR 1254 (10%), Method: PREINCUBATION): inactive; negative | mutagenic call (Test System: AMES SALMONELLA TYPHIMURIUM, Strain/Indicator: TA1535, Metabolic Activation: NONE, Method: PREINCUBATION): inactive; negative | mutagenic call (Test System: AMES SALMONELLA TYPHIMURIUM, Strain/Indicator: TA1535, Metabolic Activation: RAT, LIVER, S-9, AROCLOR 1254 (10%), Method: PREINCUBATION): inactive; negative | mutagenic call (Test System: AMES SALMONELLA TYPHIMURIUM, Strain/Indicator: TA1537, Metabolic Activation: HAMSTER, LIVER, S-9, AROCLOR 1254 (10%), Method: PREINCUBATION): inactive; negative | mutagenic call (Test System: AMES SALMONELLA TYPHIMURIUM, Strain/Indicator: TA1537, Metabolic Activation: NONE, Method: PREINCUBATION): inactive; negative | mutagenic call (Test System: AMES SALMONELLA TYPHIMURIUM, Strain/Indicator: TA1537, Metabolic Activation: RAT, LIVER, S-9, AROCLOR 1254 (10%), Method: PREINCUBATION): inactive; negative | mutagenic call (Test System: E. COLI, Strain/Indicator: WP2 UVRA (PKM101), Metabolic Activation: NONE, Method: PREINCUBATION): inactive; negative | mutagenic call (Test System: E. COLI, Strain/Indicator: WP2 UVRA (PKM101), Metabolic Activation: RAT, LIVER, S-9, KANECHLOR 500, Method: PREINCUBATION): inactive; negative | mutagenic call (Test System: MOUSE LYMPHOMA, Strain/Indicator: L5178Y (TK+/TK-), Metabolic Activation: NONE, Method: SUSPENSION/PLATE): active; positive. reevaluation of results: equivocal | mutagenic call (Test System: Mouse lymphoma, Strain/Indicator: L5178Y (tk+/tk-), Metabolic Activation: Rat, Liver, S-9, Aroclor 1254, Method: Suspension/plate): inactive; negative

O=S(=O)(Nc1ccc(Cl)cc1)c1cccc2cccnc12
mutagenic call [1]: inactive; negative | mutagenic call [2]: inactive; negative | mutagenic call [3]: inactive; negative | mutagenic call [4]: inactive; negative | mutagenic call [5]: inactive; negative | mutagenic call [6]: inactive; negative | mutagenic call [7]: inactive; negative | mutagenic call [8]: inactive; negative

CCCCCCCCOC[N+](C)(C)Cc1ccccc1
mutagenic call (Test System: BACILLUS SUBTILIS, Strain/Indicator: H17/REC, Metabolic Activation: NONE, Method: STANDARD PLATE): inactive; negative | mutagenic call (Test System: BACILLUS SUBTILIS, Strain/Indicator: M45, Metabolic Activation: NONE, Method: STANDARD PLATE): inactive; negative

Cc1cccc2c3c(c4cc5ccccc5cc4c12)O3
mutagenic call [9]: active; positive

O=C1C=C[C@]2(O)c3c(ccc(O)c31)-c1ccc(O)c3c1[C@H]2C1OC1C3=O (stereo partly specified)
mutagenic call [1]: active; positive | mutagenic call [2]: active; positive | mutagenic call [3]: active; positive | mutagenic call [4]: active; positive | mutagenic call [5]: inactive; negative | mutagenic call [6]: inactive; negative | mutagenic call [7]: active; positive | mutagenic call [8]: active; positive
